These results are taken from US20260109763A1, “ANTI-PILRA ANTIBODIES, USES THEREOF, AND RELATED METHODS AND REAGENTS” (DENALI THERAPEUTICS INC., priority 2021, published 2026).

For the assay, the system named is PILRA G78 expressing HEK293 cells. In words: mTOR dependence of anti-PILRA antibody-induced pSTAT3 Y705. The format is cell-based, human. The note with it: 2 hours pre-incubation; AZD8055 3.125-50 nM, Torin 1 31.25-500 nM; then 100 nM anti-PILRA mAb 30 mins.

Experimental: To assess if pSTAT3 Y705 induction is mTOR dependent, cells were dosed with mTOR inhibitors Torin 1 (31.25-500 nM) or AZD8055 (3.125-50 nM) for 2 hours before spiking in 100 nM anti-PILRA mAb or isotype control for 30 mins.

For the compound `CCC(=O)N1CCN(c2ccc(-n3c(=O)ccc4cnc5ccc(-c6cnc7ccccc7c6)cc5c43)cc2C(F)(F)F)CC1` [Torin 1], the “blocking of anti-PILRA antibody-induced pSTAT3 Y705 by mTOR inhibitor” value is given as “partially blocked”.

For `COc1ccc(-c2ccc3c(N4CCOC[C@@H]4C)nc(N4CCOC[C@@H]4C)nc3n2)cc1CO` [AZD8055], the “blocking of anti-PILRA antibody-induced pSTAT3 Y705 by mTOR inhibitor” value is reported as “partially blocked”.
